Molecules are shown by their SMILES. pIC50: −log10 of the molar value.

Test system in one series: not listed separately
As to the kind of experiment: Solubility test. In kind it is physicochemical. The following applies: 25 °C, other biorelevant, kinetic from dmso stock; 1% DMSO; artificial intestinal juice in pH 8.8; 25 degrees Celsius for 16 hours. As to the method:
The solubility of a compound was determined under a condition in which 1% DMSO was added. 10 mmol/L compound solution was prepared using DMSO, and then 6 μL of the compound solution was added to 594 μL of artificial intestinal juice in […] (to 250 mL of 0.2 mol/L potassium dihydrogen phosphate reagent solution was added 118 mL of 0.2 mol/L NaOH reagent solution and water to provide a final volume of 1000 mL). After standing at 25 degrees Celsius for 16 hours, the mixed solution was filtrated with suction. The filtrate was diluted twice with methanol/water (1/1) and then a concentration in the filtration was measured with HPLC or LC/MS/MS by the absolute calibration method.
What is called solubility is how much of the substance goes into solution per volume. As for `CC(C)Oc1ccc(Nc2cc(=O)n(CC(=O)NCCO)c(=O)n2Cc2ccc(Cl)cc2)cc1F` [I-112, 1-(4-chlorobenzyl)-6-(3-fluoro-4-isopropoxyphenylamino)-3-(2-hydroxyethylcarbamoylmethyl)pyrimidine-2,4(1H,3H)-dion], the solubility at 16 h is > 50 µM.

The same series, now with this note: artificial intestinal juice (phosphate buffer) with 1% DMSO, 25 °C, other biorelevant, kinetic from dmso stock, artificial intestinal juice in pH 8.8, 25 degrees Celsius for 16 hours.
`CC(C)Oc1ccc(Nc2nc(=O)c(CCC(=O)O)cn2Cc2ccc(Cl)cc2)cc1Cl` [I-117]: the solubility at 16 h is > 50 µM. Same read-out and setting: the value for `Cc1nc2ccc(Nc3nc(=O)c(C(=O)NCCCO)cn3Cc3ccc(Cl)cc3)cc2s1` [I-299] was > 50 µM; that for `CC(=O)N1CCC(C(=O)Nc2cnc(Nc3ccc4nc(C)sc4c3)n(Cc3ccc(Cl)cc3)c2=O)CC1` [I-356] was > 50 µM.

For another series, the target named is human P2X3 receptor (Homo sapiens (Human), UniProt P56373). As to the kind of experiment: Evaluation of human P2X3 receptor inhibitory activity (ATP-induced Fluo-3 fluorescence, FDSS 3000). In kind it is cell-based. The following applies: C6BU-1 cell transfected with human P2X3 receptor gene. As for the experimental part: The plate was placed in High-Throughput Screening System FDSS 3000 (Hamamatsu Photonics K.K.). […] Five minutes after, 50 nM ATP solution (50 μL) prepared by dilution with the dilution buffer was dispensed through the built-in automatic dispenser, and the measurement of fluorescence intensity was continued for 3 min. For each well, the specific maximum fluorescence intensity was calculated as the ratio of the maximum fluorescence intensity after addition of the ATP solution to the fluorescence intensity at the starting of the measurement. […] FDSS software (Hamamatsu Photonics K.K.) was used for calculation of the specific maximum fluorescence intensity. IC50 was calculated using Microsoft Excel (Microsoft. Corporation) and XLfit (idbs Ltd.)
human P2X3 receptor, sequence (P56373 whole entry): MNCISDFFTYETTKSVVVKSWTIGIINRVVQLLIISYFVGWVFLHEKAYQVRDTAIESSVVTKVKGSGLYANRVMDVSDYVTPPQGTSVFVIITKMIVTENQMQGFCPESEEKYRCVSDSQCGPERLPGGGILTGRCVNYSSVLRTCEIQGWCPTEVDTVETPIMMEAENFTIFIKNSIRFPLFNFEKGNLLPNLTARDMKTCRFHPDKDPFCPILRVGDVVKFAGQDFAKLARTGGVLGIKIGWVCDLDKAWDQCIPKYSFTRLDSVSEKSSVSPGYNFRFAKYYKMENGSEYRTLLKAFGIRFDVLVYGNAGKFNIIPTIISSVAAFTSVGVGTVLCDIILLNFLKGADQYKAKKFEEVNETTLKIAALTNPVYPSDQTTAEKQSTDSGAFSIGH
The aforementioned in mM, μM and nM are each means mmol/L, μmol/L and nmol/L, respectively.
In tables, μM means μmol/L.
What is called pIC50 is the IC50 on a negative log10 scale, so that one unit is a factor of ten. For `CC(C)Oc1ccc(Nc2cc(=O)n(CC(=O)NCCO)c(=O)n2Cc2ccc(Cl)cc2)cc1F` [I-112, 1-(4-chlorobenzyl)-6-(3-fluoro-4-isopropoxyphenylamino)-3-(2-hydroxyethylcarbamoylmethyl)pyrimidine-2,4(1H,3H)-dion], the pIC50 was 7.85. The same measure, in the same setting: the value for `CC(C)Oc1ccc(Nc2ncc(NC(=O)c3cc[nH]c(=O)c3)c(=O)n2Cc2ccc(Cl)cc2)cc1F` [I-275] was 7.96; that for `CC(C)Oc1ccc(Nc2ncc(NC(=O)c3ccc(=O)[nH]c3)c(=O)n2Cc2ccc(Cl)cc2)cc1F` [I-276] was 7.49; that for `CC(C)Oc1ccc(Nc2ncc(NC(N)=O)c(=O)n2Cc2ccc(Cl)cc2)cc1F` [I-277] was 7.31. Still for that read-out and setting: the value for `CC(C)Oc1ccc(Nc2ncc(NC(=O)N3CCOCC3)c(=O)n2Cc2ccc(Cl)cc2)cc1F` [I-278] was 7.80; that for `CC(C)Oc1ccc(Nc2ncc(NC(=O)c3ccn(C)c(=O)c3)c(=O)n2Cc2ccc(Cl)cc2)cc1F` [I-279] was 6.86; that for `Cc1nc2ccc(Nc3ncc(C)c(=O)n3Cc3ccc(Cl)cc3)cc2s1` [I-280] was 6.63. For `CCOC(=O)c1cn(Cc2ccc(Cl)cc2)c(Nc2ccc3nc(C)sc3c2)nc1=O` [I-282], the pIC50 is 6.57. As for `CC(C)Oc1ccc(Nc2ncc(NC(=O)C3COC(C)(C)OC3)c(=O)n2Cc2ccc(Cl)cc2)cc1F` [I-287], the pIC50 is 7.64.

For `CC(C)Oc1ccc(Nc2ncc(NC(=O)C(CO)CO)c(=O)n2Cc2ccc(Cl)cc2)cc1F` [I-288], the pIC50 is 7.77. The same measure, in the same setting: the value for `CC(C)Oc1ccc(Nc2ncc(NC(=O)C(C)(C)C#N)c(=O)n2Cc2ccc(Cl)cc2)cc1F` [I-290] was 7.64; that for `CC(=O)Nc1cnc(Nc2ccc(Oc3ccc(C)nc3)cc2)n(Cc2ccc(Cl)cc2)c1=O` [I-291] was 7.37; that for `Cc1ccc(Oc2ccc(Nc3ncc(N)c(=O)n3Cc3ccc(Cl)cc3)cc2)cn1` [I-292] was 6.36. Consider `CC(=O)OC(C)(C)C(=O)Nc1cnc(Nc2ccc(Oc3ccc(C)nc3)cc2)n(Cc2ccc(Cl)cc2)c1=O` [I-293], for which the pIC50 is 7.85. Still for that read-out and setting: for `Cc1ccc(Oc2ccc(Nc3ncc(NC(=O)C4COC(C)(C)OC4)c(=O)n3Cc3ccc(Cl)cc3)cc2)cn1` [I-294] the value was 8.05; for `Cc1ccc(Oc2ccc(Nc3ncc(NC(=O)C(C)(C)O)c(=O)n3Cc3ccc(Cl)cc3)cc2)cn1` [I-295], 8.70.

`Cc1ccc(Oc2ccc(Nc3ncc(NC(=O)C(CO)CO)c(=O)n3Cc3ccc(Cl)cc3)cc2)cn1` [I-296] gave a pIC50 of 8.15. `CC(=O)Nc1cnc(Nc2ccc3nc(C)sc3c2)n(Cc2ccc(Cl)cc2)c1=O` [I-297]: the pIC50 was 6.95. Compound `Cc1ccc(Oc2ccc(Nc3ncc(NC(=O)C(CO)CO)c(=O)n3Cc3ccc(Cl)cc3)cc2)cn1` [I-298] showed a pIC50 of 8.10. Still for that read-out and setting: the value for `Cc1nc2ccc(Nc3nc(=O)c(C(=O)NCCCO)cn3Cc3ccc(Cl)cc3)cc2s1` [I-299] was 6.95; that for `COCCCNC(=O)c1cn(Cc2ccc(Cl)cc2)c(Nc2ccc3nc(C)sc3c2)nc1=O` [I-300] was 6.79; that for `Cc1nc2ccc(Nc3nc(=O)c(C(=O)NCCC#N)cn3Cc3ccc(Cl)cc3)cc2s1` [I-301] was 6.91.

In the case of `CC(=O)N1CCC(NC(=O)c2cn(Cc3ccc(Cl)cc3)c(Nc3ccc4nc(C)sc4c3)nc2=O)CC1` [I-302], the pIC50 was 7.06. Consider `COC(=O)c1cncc(Oc2ccc(Nc3ncc(NC(=O)C4CCOCC4)c(=O)n3Cc3ccc(Cl)cc3)cc2)c1` [I-304], for which the pIC50 was 8.70. Still for that read-out and setting: the value for `Cc1nc2ccc(Nc3ncc(Br)c(=O)n3Cc3ccc(Cl)cc3)cc2s1` [I-306] was 6.68; that for `Cc1nc2ccc(Nc3nc(=O)c(C(=O)NC(C)C)cn3Cc3ccc(Cl)cc3)cc2s1` [I-307] was 7.40. Same read-out and setting: for `Cc1nc2ccc(Nc3nc(=O)c(C(=O)NC4COC4)cn3Cc3ccc(Cl)cc3)cc2s1` [I-308] the value was 6.88; for `Cc1nc2ccc(Nc3nc(=O)c(C(=O)NC4CC4)cn3Cc3ccc(Cl)cc3)cc2s1` [I-309], 7.21; for `Cc1nc2ccc(Nc3nc(=O)c(C(=O)NN(C)C)cn3Cc3ccc(Cl)cc3)cc2s1` [I-310], 6.88.

In turn, `O=C(Nc1cnc(Nc2ccc(Oc3cnc(Cl)c(F)c3)cc2)n(Cc2ccc(Cl)cc2)c1=O)C1CCOCC1` [I-311] showed a pIC50 of 8.40.

Regarding `CSc1ccc(Cn2c(Nc3ccc4nc(C)sc4c3)ncc(NC(=O)C3CCOCC3)c2=O)cc1` [I-312], the pIC50 is 7.96. Still for that read-out and setting: the value for `CCn1c(=O)cc(Nc2ccc(Oc3cncc(C(=O)OC)c3)cc2)n(Cc2ccc(Cl)cc2)c1=O` [I-314] was 7.46; that for `CCn1c(=O)cc(Nc2ccc(Oc3ccnc(C(=O)OC)c3)cc2)n(Cc2ccc(Cl)cc2)c1=O` [I-316] was 8.05; that for `CCn1c(=O)cc(Nc2ccc(Oc3ccnc(C(=O)O)c3)cc2)n(Cc2ccc(Cl)cc2)c1=O` [I-317] was 8.52. The same measure, in the same setting: for `Cc1nc2ccc(Nc3ncc(NC(=O)OC(C)(C)C)c(=O)n3Cc3ccc(Cl)cc3)cc2s1` [I-318] the value was 8.05. Same read-out and setting: for `Cc1nc2ccc(Nc3ncc(NC(=O)OCc4ccccc4)c(=O)n3Cc3ccc(Cl)cc3)cc2s1` [I-319] the value was 6.98. As for `CCC1(CC)C(=O)N/C(=N\c2ccc(OC(C)C)cc2)N(Cc2ccc(Cl)cc2)C1=O` [I-327], the pIC50 is 6.06.

The compound `Cc1nc(Nc2ccc(OC(C)C)cc2)n(Cc2ccc(Cl)cc2)c(=O)c1Cc1ccccc1` [I-330] had a pIC50 of 6.46. The same measure, in the same setting: for `CC(C)NC(=O)c1c(O)[nH]/c(=N\c2ccc(OC(C)C)cc2)n(Cc2ccc(Cl)cc2)c1=O` [I-332] the value was 6.30; for `COC(=O)CCNC(=O)c1c(O)[nH]/c(=N\c2ccc(OC(C)C)cc2)n(Cc2ccc(Cl)cc2)c1=O` [I-333, 1-(4-chlorobenzyl)-3-(2-methoxycarbonylethyl)carbamoyl-4-hydroxy-6-(4-isopropoxyphenylimino)-2,3-dihydro-pyrimidine-4-one], 6.94; for `CCOC(=O)c1c(O)[nH]/c(=N\c2ccc(OC(C)C)cc2)n(Cc2ccc(Cl)cc2)c1=O` [I-334], 6.73. On the same count and under the same terms, for `CC(=O)Nc1c(O)[nH]/c(=N\c2ccc(OC(C)C)cc2)n(Cc2ccc(Cl)cc2)c1=O` [I-339, 1-(4-chlorobenzyl)-3-acetylamino-4-hydroxy-6-(4-isopropoxyphenylimino)-2,3-dihydro-pryimidine-4-one] the value was 6.29. For `CC(C)Oc1ccc(/N=c2\[nH]c(O)c(NC(=O)C(C)C)c(=O)n2Cc2ccc(Cl)cc2)cc1` [I-341], the pIC50 was 6.17.

The compound `Cc1cc(=O)n(Cc2ccc(Cl)cc2)c(Nc2ccc3nc(C)sc3c2)n1` [I-343] had a pIC50 of 6.16. Same read-out and setting: for `CCOC(=O)c1c(C)nc(Nc2ccc3nc(C)sc3c2)n(Cc2ccc(Cl)cc2)c1=O` [I-345] the value was 6.56; for `Cc1nc2ccc(Nc3nc(C)c(C(N)=O)c(=O)n3Cc3ccc(Cl)cc3)cc2s1` [I-347], 6.74; for `Cc1nc2ccc(Nc3nc(C)c(NC(=O)OC(C)(C)C)c(=O)n3Cc3ccc(Cl)cc3)cc2s1` [I-348], 6.98.

`Cc1nc2ccc(Nc3nc(C)c(Br)c(=O)n3Cc3ccc(Cl)cc3)cc2s1` [I-349] had a pIC50 of 6.55. With `C=Cc1c(C)nc(Nc2ccc3nc(C)sc3c2)n(Cc2ccc(Cl)cc2)c1=O` [I-350], the pIC50 is 6.41. On the same count and under the same terms, for `CCc1c(C)nc(Nc2ccc3nc(C)sc3c2)n(Cc2ccc(Cl)cc2)c1=O` [I-351] the value was 6.84; for `COC(=O)CCCn1c(=O)cc(Nc2ccc3nc(C)sc3c2)n(Cc2ccc(Cl)cc2)c1=O` [I-352], 7.62; for `Cc1nc2ccc(Nc3cc(=O)n(CCOC4CCCCO4)c(=O)n3Cc3ccc(Cl)cc3)cc2s1` (centres unmarked) [I-353], 8.05.

As to `Cc1nc2ccc(Nc3cc(=O)n(CCO)c(=O)n3Cc3ccc(Cl)cc3)cc2s1` [I-355], the pIC50 is 7.24. On the same count and under the same terms, the value for `CC(=O)N1CCC(C(=O)Nc2cnc(Nc3ccc4nc(C)sc4c3)n(Cc3ccc(Cl)cc3)c2=O)CC1` [I-356] was 7.74; that for `COC(=O)c1cccc(Oc2ccc(Nc3ncc(NC(=O)C4CCOCC4)c(=O)n3Cc3ccc(Cl)cc3)cc2)c1` [I-357] was 8.52. Consider `CC(=O)OC(C)(C)C(=O)Nc1cnc(Nc2ccc3nc(C)sc3c2)n(Cc2ccc(Cl)cc2)c1=O` [I-358], for which the pIC50 was 7.80. With `Cc1nc2ccc(Nc3ncc(NC(=O)C(C)(C)O)c(=O)n3Cc3ccc(Cl)cc3)cc2s1` [I-360], the pIC50 is 8.52.

In the case of `Cc1nc2ccc(Nc3ncc(NC(=O)C(CO)CO)c(=O)n3Cc3ccc(Cl)cc3)cc2s1` [I-361], the pIC50 is 8.00.
